{
  "source": "patent US20130243847A1",
  "about": "“ACTIVATED CREATININE AND PRECURSORS THEREOF AS ANTIBACTERIAL AGENTS, COMPOSITIONS AND PRODUCTS CONTAINING SUCH AGENTS AND USE THEREOF” (BOARD OF REGENTS OF THE UNIVERSITY OF NEBRASKA, priority 2010, published 2013)",
  "assay_type_in_all_cases": "cell-based",
  "key": {"[1]": {"test_system": "Rhodotorula sp.", "experiment": "Selective growth on LBD, mixture of S. aureus and Rhodotorula sp. (Example 12, FIG. 11B)", "conditions": "200-400 mM CEE in LBD, 37° C., 36 hours", "method": "(§1) Colonies of S. aureus and Rhodotorula sp. grown on LB agar supplemented with 1% dextrose (LBD) were suspended in PBS to 0.30 A580 nm. An equal volume of the two organisms was combined and the mixture streaked onto wells containing only LBD (None) or LBD supplemented with a precursor of antibacterially-activated CRN, CEE, and incubated at 37° C. for 36 hours."}, "[2]": {"test_system": "S. aureus", "experiment": "Selective growth on LBD, mixture of S. aureus and Rhodotorula sp. (Example 12, FIG. 11B)", "conditions": "37° C., 36 hours", "method": "as §1"}, "[3]": {"test_system": "M. luteus", "experiment": "Growth in broth with CEE at different concentrations (Example 3, FIG. 2B)", "conditions": "broth culture, absorbance over time", "method": "The CEE precursor of antibacterially-activated CRN was diluted at different concentrations into Lederberg's broth (LB), which was then inoculated to 10^4/mL with S. aureus. The cultures were incubated in capped plastic tubes at 37° C. and aerated by tumbling using a tube rotating device.\nA similar experiment was conducted with the same precursor of antibacterially-activated CRN and tested on M. luteus."}, "[4]": {"test_system": "Staphylococcus aureus laboratory strain 29213", "experiment": "Disc diffusion assay, CEE vs gentamicin", "conditions": "S. aureus laboratory strain 29213; 50 mg anhydrous topical cream with 28% by weight agent; gentamicin 10 μg disc", "method": "(§2) This testing involved the use of 50 mg of an anhydrous topical cream containing the antibacterial agent of the invention in an amount of 28% by weight and 10 μg of gentamicin, impregnated into a standard commercially available disc (Remel, Lenoxa Kans.)."}, "[5]": {"test_system": "Micrococcus luteus laboratory isolate", "experiment": "Disc diffusion assay, CEE vs gentamicin", "conditions": "M. luteus laboratory isolate; 50 mg anhydrous topical cream with 28% by weight agent", "method": "as §2"}, "[6]": {"test_system": "Bacillus subtilis laboratory strain", "experiment": "Disc diffusion assay, CEE vs gentamicin", "conditions": "B. subtilis laboratory strain; 50 mg anhydrous topical cream with 28% by weight agent", "method": "as §2"}, "[7]": {"test_system": "Rhodotorula sp. laboratory isolate", "experiment": "Disc diffusion assay, CEE vs gentamicin", "conditions": "50 mg anhydrous topical cream with 28% by weight agent", "method": "as §2"}, "[8]": {"test_system": "Staphylococcus aureus methicillin resistant (MRSA)", "experiment": "Disc diffusion assay, CEE vs gentamicin", "conditions": "S. aureus MRSA; 50 mg anhydrous topical cream with 28% by weight agent; gentamicin 10 μg disc", "method": "as §2"}, "[9]": {"test_system": "Enterococcus faecium vancomycin resistant (VRE)", "experiment": "Disc diffusion assay, CEE vs gentamicin", "conditions": "E. faecium VRE; 50 mg anhydrous topical cream with 28% by weight agent; gentamicin 10 μg disc", "method": "as §2"}, "[10]": {"test_system": "Pseudomonas aeruginosa laboratory strain 27853", "experiment": "Disc diffusion assay, CEE vs gentamicin", "conditions": "P. aeruginosa laboratory strain 27853; 50 mg anhydrous topical cream with 28% by weight agent; gentamicin 10 μg disc", "method": "as §2"}, "[11]": {"test_system": "Bacillus cereus laboratory strain", "experiment": "Disc diffusion assay, CEE vs gentamicin", "conditions": "B. cereus laboratory strain; 50 mg anhydrous topical cream with 28% by weight agent", "method": "as §2"}, "[12]": {"test_system": "Saccharomyces sp. isolate from baker's yeast", "experiment": "Disc diffusion assay, CEE vs gentamicin", "conditions": "50 mg anhydrous topical cream with 28% by weight agent", "method": "as §2"}, "[13]": {"test_system": "Escherichia coli laboratory strain 35150", "experiment": "Disc diffusion assay, CEE vs gentamicin", "conditions": "E. coli laboratory strain 35150; 50 mg anhydrous topical cream with 28% by weight agent; gentamicin 10 μg disc", "method": "as §2"}, "[14]": {"test_system": "Pseudomonas fluorescens laboratory strain", "experiment": "Disc diffusion assay, CEE vs gentamicin", "conditions": "P. fluorescens laboratory strain; 50 mg anhydrous topical cream with 28% by weight agent", "method": "as §2"}, "[15]": {"test_system": "S. aureus", "experiment": "Disc diffusion assay of creatine esters (Example 6)", "conditions": "approx. 50 μL anhydrous polyethylene glycol carrier with 28% by weight agent", "method": "Four (4) different creatine esters were prepared according to the method of U.S. Pat. No. 6,897,334 to Vennerstrom. The esters thus prepared were activated in the manner described herein to impart antibacterial activity thereto. Four (4) test formulations were prepared, each including approximately 50 μL of an anhydrous polyethylene glycol carrier containing 28% by weight of a different creatine ester. Each formulation was added to a 6 mm disc and inverted onto a brain heart infusion agar plate that was previously spread with S. aureus at 10^5 organisms per mL. Plates were incubated at 37° C. overnight and the clear zones showing inhibition of bacterial growth were measured."}, "[16]": {"test_system": "S. aureus UAMS-1", "experiment": "Bactericidal test in overnight culture (Example 5, FIG. 4)", "conditions": "200 mM", "method": "S. aureus UAMS-1 was started from a static overnight, grown for 3 hours, then 0.2 mL was added to 3 different 50 mL cultures for control, CRN and CEE. These were shaken 30 min. at 37° C., an aliquot was removed prior to the addition of a precursor of antibacterially-activated CRN, CEE, or antibacterially-activated CRN, and the starting titer was determined. Powdered CEE or crystal CRN was added directly to the 50 mL cultures to a final concentration of 200 mM. The cultures were shaken overnight and the absorbance (A) and colony forming units (cfu) were determined."}, "[17]": {"test_system": "Saccharomyces sp.", "experiment": "Selective growth on LBD agar, mixture of Micrococcus sp. and Saccharomyces sp. (Example 12, FIG. 11A)", "method": "Colonies of Micrococcus sp. and Saccharomyces sp. grown on LB agar supplemented with 1% dextrose (LBD) were suspended in PBS to 0.30 A580 nm. An equal volume of the two organisms was combined and the mixture streaked onto LBD agar alone or LBD containing CEE and incubated at 37 C for 24 hours."}},
  "note": "Entries after “also recorded” stand apart in the source; their conditions may differ.",
  "data": [
    {"smiles": "CCOC(=O)CN(C)C(=N)N", "note": "[CEE, creatine ethyl ester]", "values": [
      {"measurement": "growth of Rhodotorula", "setting": "[1]", "value": "did not retard growth"},
      {"measurement": "growth of Staphylococcus", "setting": "[2]; 100 mM CEE in LBD", "value": "retarded"},
      {"measurement": "growth of Staphylococcus", "setting": "[2]; 200 mM CEE and greater in LBD", "value": "completely inhibited"},
      {"measurement": "concentration that inhibited growth of M. luteus", "setting": "[3]", "value": "approximately 1 mM"},
      {"measurement": "Zone of Inhibition", "setting": "[4]", "value": 26, "unit": "mm"},
      {"measurement": "Zone of Inhibition", "setting": "[5]", "value": 22, "unit": "mm"},
      {"measurement": "Zone of Inhibition", "setting": "[6]", "value": 20, "unit": "mm"},
      {"measurement": "Zone of Inhibition", "setting": "[7]", "value": 0, "unit": "mm"},
      {"measurement": "Zone of Inhibition", "setting": "[8]", "value": 27, "unit": "mm"},
      {"measurement": "Zone of Inhibition", "setting": "[9]", "value": 18, "unit": "mm"},
      {"measurement": "Zone of Inhibition", "setting": "[10]", "value": 27, "unit": "mm"},
      {"measurement": "Zone of Inhibition", "setting": "[11]", "value": 22, "unit": "mm"},
      {"measurement": "Zone of Inhibition", "setting": "[12]", "value": 0, "unit": "mm"},
      {"measurement": "Zone of Inhibition", "setting": "[13]", "value": 15, "unit": "mm"},
      {"measurement": "Zone of Inhibition", "setting": "[14]", "value": 18, "unit": "mm"},
      {"measurement": "Zone of Inhibition", "setting": "[15]", "value": 20, "unit": "mm"},
      {"measurement": "colonies from 1 mL of treated culture plated on solid media", "setting": "[16]; overnight culture, 48 hours incubation of plates, control 3×10^9 per mL", "value": "no colonies"},
      {"measurement": "bactericidal action for S. aureus", "setting": "[16]; starting at about 1×10^3 organisms per mL", "value": "bacteriocidal; also recorded: bactericidal"},
      {"measurement": "selectivity of media for yeast over Micrococcus sp.", "setting": "[17]; 200 mM CEE in LBD agar, 37 C, 24 hours", "value": "selective for Saccharomyces"},
      {"measurement": "growth of Saccharomyces", "setting": "[17]; 300-400 mM CEE in LBD agar (data not shown)", "value": "supported growth of Saccharomyces"}
    ]}
  ]
}
